Results taken from patent US12060351B2, “Thiadiazole IRAK4 inhibitors” (Gilead Sciences, Inc., priority 2018, dated 2024).
Read-outs that look alike come from different tables or passages of the source.

How the values were obtained:
IRAK4 enzyme = biological target: T1, IRAK4 enzyme (Homo sapiens, UniProt Q9NWZ3); assay: IRAK4 Biochemical Assay (TR-FRET, STK1 KinEASE); conditions: 500 μM ATP, Table 2 second part (compounds 33-343), read-out: IC50 IRAK4-HTBS
T1 construct: purchased Carna Biosciences, Chuo-ku, Kobe, Japan
T1 sequence (Q9NWZ3 1-460): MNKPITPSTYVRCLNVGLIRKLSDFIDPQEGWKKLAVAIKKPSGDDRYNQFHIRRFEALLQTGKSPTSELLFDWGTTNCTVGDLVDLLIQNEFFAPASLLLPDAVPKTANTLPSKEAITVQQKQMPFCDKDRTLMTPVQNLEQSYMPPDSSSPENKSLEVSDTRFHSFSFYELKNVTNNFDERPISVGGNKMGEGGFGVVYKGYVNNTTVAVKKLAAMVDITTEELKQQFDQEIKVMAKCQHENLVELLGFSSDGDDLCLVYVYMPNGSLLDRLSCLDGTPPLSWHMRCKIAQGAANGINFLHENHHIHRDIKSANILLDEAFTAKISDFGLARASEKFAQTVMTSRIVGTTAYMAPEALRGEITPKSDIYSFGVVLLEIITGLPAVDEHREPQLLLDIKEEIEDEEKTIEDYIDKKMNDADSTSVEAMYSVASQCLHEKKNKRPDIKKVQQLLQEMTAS
Procedure: IRAK4 enzyme (Carna Biosciences, Chuo-ku, Kobe, Japan) activity was measured by detecting phosphorylated peptide substrate formation using an antibody against the phosphorylated peptide substrate. This is a time-resolved fluorescence resonance energy transfer (TR-FRET) immunoassay, based on the STK1 KinEASE Assay (Cisbio, Bedford, Massachusetts). The assay was designed as a simple two-step, endpoint assay (a 5 μl enzyme reaction followed by 5 μl stop and detect Solution) performed in ProxiPlate-384 Plus plates (Perkin Elmer, Waltham, Massachusetts). […] Compounds diluted in DMSO were spotted into 384 well plates using a Labcyte® Echo 550 Liquid Handling System prior to addition of IRAK4 enzyme and peptide substrate. Reaction solutions were delivered using a Multi-Flo (Bio-Tek Instruments). The enzyme and peptide solution was incubated with compound for 15 minutes at room temp before the reaction was initiated by the addition of ATP. The standard 5 μl reaction mixture contained 500 μM ATP, 2 μM peptide (STK1 Peptide), 0.75 nM of IRAK4 in reaction buffer (50 mM HEPES, pH 7.0, 0.02% NaN3, 0.01% BSA, 0.1 mM Orthovanadate, 5 mM MgCl2, 0.025% NP-40, 1 mM DTT). After 120 min of incubation at room temperature, 5 μl of Stop and Detect Solution (1:100 Cryptate labeled anti-phosphorylated peptide antibody solution and 125 nM Tracer in a 50 mM HEPES pH 7.0 detection buffer containing sufficient EDTA) was added. The plate was then further incubated for 60 minutes at room temperature and read on Envision 2103 Multilabeled reader (PerkinElmer) with excitation/emission/FRET emission at 340 nm/615 nm/665 nm, respectively. Fluorescence intensities at 615 nm and 665 nm emission wavelengths were expressed as a ratio (665 nm/615 nm).

TNFα = assay: IRAK4 Monocyte TNFα Cell Based Assay (LPS-stimulated, TR-FRET TNFα detection); design: species or system human; conditions: Homo sapiens, Monocyte, read-out: EC50 MONO TNF HTRF
Procedure: IRAK4 Monocyte TNFα Cell Based Assay Procedure:
The cell suspension was then plated at a density of 5,000 cells/well onto black 384 well Greiner clear bottom plates. Plates were pre-spotted with test compounds and serially diluted in DMSO where 40 nL/well were delivered using the Echo 550 acoustic liquid dispenser (Labcyte®) for a final DMSO concentration of 0.1%. Plated cells were treated with compound for 1 hour at 37° C. Cells were then stimulated with 50 pg/ml of LPS (Sigma) excluding outside columns of plate used for unstimulated cell control wells. Cells were incubated for an additional 4 hours at 37° C. Cells were then spun out of the media and 5 μl of sample were taken and analyzed for total TNFα content using the TR-FRET Human TNFα detection system (CisBio). This system utilizes two labeled antibodies (cryptate and XL665) that bind to two different epitopes of the TNFα molecule and produce FRET signal proportional to the concentration of TNFα in the sample. Detection antibodies are mixed 50:50 and 5 μL were dispensed into each well. Plates were covered with clear seals and incubated at room temp overnight. […] Percent of control was calculated as follows: % Control=100×(RatioSample−Ratio0% Stimulation)/(Ratio100% Stimulation−Ratio0% Stimulation) where unstimulated cells (0% stimulation) were the negative control and stimulated cells (100% stimulation) were used as the positive control.

[1] = human monocytes, LPS-stimulated, Table 2 second part (compounds 33-343)

Row | SMILES | IC50 (IRAK4 enzyme) [nM] | EC50 (TNFα; [1]) [nM] | EC50 (TNFα) [nM]
1 | CC(C)Nc1cc(-c2ccc3cc(C#N)cnn23)ncc1-c1nnc(C(=O)N[C@H]2C[C@@H](O)C2)s1 [Example 215, 5-(6-(3-cyanopyrrolo[1,2-b]pyridazin-7-yl)-4-(isopropylamino)pyridin-3-yl)-N-((1s,3s)-3-hydroxycyclobutyl)-1,3,4-thiadiazole-2-carboxamide] | 0.7 | 3100 | –
2 | CC(=O)N[C@@H]1C[C@H]2COC[C@@H](C1)N2c1nnc(-c2cnc(-c3ccc4cc(C#N)cnn34)cc2NC(C)C)s1 [Example 209, N-((1R,5S,7r)-9-(5-(6-(3-cyanopyrrolo[1,2-b]pyridazin-7-yl)-4-(isopropylamino)pyridin-3-yl)-1,3,4-thiadiazol-2-lyl)-3-oxa-9-azabicyclo[3.3.1]nonan-7-yl)acetamide] | 0.89 | – | 9.6
3 | CC(=O)N[C@@H]1[C@@H]2CC[C@H]1CN(c1nnc(-c3cnc(-c4ccc5cc(C#N)cnn45)cc3NC3CCOCC3)s1)C2 [Example 171, N-((1R,5S,8s)-3-(5-(6-(3-cyanopyrrolo[1,2-b]pyridazin-7-yl)-4-((tetrahydro-2H-pyran-4-yl)amino)pyridin-3-yl)-1,3,4-thiadiazol-2-yl)-3-azabicyclo[3.2.1]octan-8-yl)acetamide] | 0.46 | 2.1 | –
4 | CC(C)Nc1cc(-c2ccc3cc(C#N)cnn23)ncc1-c1nnc(N2C[C@H]3CC[C@@H](C2)[C@@H]3NC(=O)C(C)(C)C(=O)O)s1 [Example 97, 3-(((1R,5S,8s)-3-(5-(6-(3-cyanopyrrolo[1,2-b]pyridazin-7-yl)-4-(isopropylamino)pyridin-3-yl)-1,3,4-thiadiazol-2-yl)-3-azabicyclo[3.2.1]octan-8-yl)amino)-2,2-dimethyl-3-oxopropanoic acid] | 0.82 | 21.7 | –
5 | CC(C)Nc1cc(-c2ccc3cc(C#N)cnn23)ncc1-c1nnc(N2C[C@H]3CC[C@@H](C2)[C@@H]3NS(C)(=O)=O)s1 [Example 58, N-((1R,5S,8s)-3-(5-(6-(3-cyanopyrrolo[1,2-b]pyridazin-7-yl)-4-(isopropylamino)pyridin-3-yl)-1,3,4-thiadiazol-2-yl)-3-azabicyclo[3.2.1]octan-8-yl)methanesulfonamide] | 1.88 | 9.3 | –
6 | CC(C)Nc1cc(-c2ccc3cc(C#N)cnn23)ncc1-c1nnc(C(=O)N[C@H]2C[C@H](O)C2)s1 [Example 213, 5-(6-(3-cyanopyrrolo[1,2-b]pyridazin-7-yl)-4-(isopropylamino)pyridin-3-yl)-N-((1r,3r)-3-hydroxycyclobutyl)-1,3,4-thiadiazole-2-carboxamide] | 0.31 | 1830 | –
7 | CC(=O)NC[C@H]1C[C@H](c2nnc(-c3cnc(-c4ccc5cc(C#N)cnn45)cc3NC(C)C)s2)C1 [Compound 290, N-(((1r,3r)-3-(5-(6-(3-cyanopyrrolo[1,2-b]pyridazin-7-yl)-4-(isopropylamino)pyridin-3-yl)-1,3,4-thiadiazol-2-yl)cyclobutyl)methyl)acetamide] | 0.33 | 16.2 | –
8 | CC(C)Nc1cc(-c2ccc3cc(C#N)cnn23)ncc1-c1nnc(N2C[C@H]3CC[C@@H](C2)[C@@H]3NC(=O)C(C)(C)O)s1 [Example 85, N-((1R,5S,8s)-3-(5-(6-(3-cyanopyrrolo[1,2-b]pyridazin-7-yl)-4-(isopropylamino)pyridin-3-yl)-1,3,4-thiadiazol-2-yl)-3-azabicyclo[3.2.1]octan-8-yl)-2-hydroxy-2-methylpropanamide] | 1.04 | 3.3 | –
9 | CC(=O)N(C)[C@@H]1[C@@H]2CC[C@H]1CN(c1nnc(-c3cnc(-c4ccc5cc(C#N)cnn45)cc3NC(C)C)s1)C2 [Compound 300, N-((1R,5S,8s)-3-(5-(6-(3-cyanopyrrolo[1,2-b]pyridazin-7-yl)-4-(isopropylamino)pyridin-3-yl)-1,3,4-thiadiazol-2-yl)-3-azabicyclo[3.2.1]octan-8-yl)-N-methylacetamide] | 0.98 | 5.3 | –
10 | CC(=O)N[C@H]1CC[C@H](c2nnc(-c3cnc(-c4ccc5cc(C#N)cnn45)cc3N[C@H]3CCC[C@@H](O)C3)s2)CC1 [Compound 245, N-((1S,4r)-4-(5-(6-(3-cyanopyrrolo[1,2-b]pyridazin-7-yl)-4-(((1S,3R)-3-hydroxycyclohexyl)amino)pyridin-3-yl)-1,3,4-thiadiazol-2-yl)cyclohexyl)acetamide] | 0.55 | 3.2 | –
11 | CC(C)Nc1cc(-c2ccc3cc(C#N)cnn23)ncc1-c1nnc(N2C[C@H]3CC[C@@H](C2)[C@@H]3NC(=O)C(=O)N=S(C)(C)=O)s1 [Example 103, N1-((1R,5S,8s)-3-(5-(6-(3-cyanopyrrolo[1,2-b]pyridazin-7-yl)-4-(isopropylamino)pyridin-3-yl)-1,3,4-thiadiazol-2-yl)-3-azabicyclo[3.2.1]octan-8-yl)-N2-(dimethyl(oxo)-16-sulfanylidene)oxalamide] | 0.51 | 1.4 | –
12 | CC(C)Nc1cc(-c2ccc3cc(C#N)cnn23)ncc1-c1nnc(N2C[C@H]3CC[C@@H](C2)[C@@H]3NC(=O)N2CCOCC2)s1 [Example 57, N-((1R,5S,8s)-3-(5-(6-(3-cyanopyrrolo[1,2-b]pyridazin-7-yl)-4-(isopropylamino)pyridin-3-yl)-1,3,4-thiadiazol-2-yl)-3-azabicyclo[3.2.1]octan-8-yl)morpholine-4-carboxamide] | 1.16 | 6.8 | –
13 | CC(C)Nc1cc(-c2ccc3cc(C#N)cnn23)ncc1-c1nnc(N2C[C@H]3CC[C@@H](C2)[C@@]3(C)O)s1 [Example 153, 7-(5-(5-((1R,5S,8r)-8-hydroxy-8-methyl-3-azabicyclo[3.2.1]octan-3-yl)-1,3,4-thiadiazol-2-yl)-4-(isopropylamino)pyridin-2-yl)pyrrolo[1,2-b]pyridazine-3-carbonitrile] | 0.91 | 7.2 | –
14 | CC(=O)N[C@@H]1[C@@H]2CC[C@H]1CN(c1nnc(-c3cnc(-c4ccc5cc(C#N)cnn45)cc3NC3(C)CCOCC3)s1)C2 [Compound 272, N-((1R,5S,8s)-3-(5-(6-(3-cyanopyrrolo[1,2-b]pyridazin-7-yl)-4-((4-methyltetrahydro-2H-pyran-4-yl)amino)pyridin-3-yl)-1,3,4-thiadiazol-2-yl)-3-azabicyclo[3.2.1]octan-8-yl)acetamide] | 1.1 | 4.1 | –
15 | CC(=O)N[C@@H]1[C@@H]2C[C@H]1CN(c1nnc(-c3cnc(-c4ccc5cc(C#N)cnn45)cc3NC(C)C)s1)C2 [Example 173, N-((1R,5S,6s)-3-(5-(6-(3-cyanopyrrolo[1,2-b]pyridazin-7-yl)-4-(isopropylamino)pyridin-3-yl)-1,3,4-thiadiazol-2-yl)-3-azabicyclo[3.1.1]heptan-6-yl)acetamide] | 1.52 | – | 11.6
16 | CC(=O)N[C@H]1C[C@H](c2nnc(-c3cnc(-c4ccc5cc(C#N)cnn45)cc3NC(C)C)s2)C1 [Compound 278, N-((1r,3r)-3-(5-(6-(3-cyanopyrrolo[1,2-b]pyridazin-7-yl)-4-(isopropylamino)pyridin-3-yl)-1,3,4-thiadiazol-2-yl)cyclobutyl)acetamide] | 0.07 | ≥ 10000 | –
